Source: patent US5776949A, “2-(1H) quinolinone compounds” (Adir et Compagnie, priority 1997, dated 1998)

Key:
[1] = test system: glutamate-dependent convulsive attacks; experiment: Anti-convulsant activity in vivo: convulsions triggered by sound stimulus in DBA2 mice
Text: Likewise, in the DBA2 mice, glutamate-dependent convulsive attacks may be triggered by subjecting the animals to a sound stimulus of high frequency (14 kHz, 103 dB). The anticonvulsion effects are objectivated by the capacity to prevent convulsions arrival and the death which follows.

[2] = test system: cerebral infarct; experiment: Antineurodegenerative activity in vivo: occlusion of the middle cerebral artery (MCA), infarct volume; details: rats; for reduction of cortical edematous infarct volume: 20 mg/kg i.v., 1 hour after arterial occlusion
Protocol: The occlusion of the sylvian artery (or middle cerebral artery MCA) is at the origin of about 70% of cases of cerebral vascular accidents in man. This type of cerebral ischemia may be reproduced very precisely in rats by intracerebral ligature of the MCA. This definitive occlusion causes, within 24 hours, the formation of a striatocortical infarct of identical location to that observed in a clinical situation. The infarct is perfectly delimited and is therefore histologically measurable. This infarct is of the edematous type. It changes within the following 3 days into a definitive necrotic infarct. The excessive liberation of glutamate is a major pathological feature for the genesis of the cerebral infarct. An antiischemic neuroprotective compound should prevent the formation of this infarct at 24 hours and on its necrotic maturation at 96 hours.
The compounds of the invention are compounds with a potent antiischemic effect, even during post-ischemic delayed treatment (treatment by the i.v. route 1 hour after the arterial occlusion). […] This is a major activity since it also prevents necrotic maturation. Thus, when a 3-day follow-up treatment (10 mg/kg i.p. twice per day) is carried out after the initial i.v. injection (20 mg/kg), the compound of Example 1decreases the volume of the terminal infarct by 44%.

[3] = test system: NMDA receptor; experiment: glycine/NMDA-induced currents in Xenopus oocytes injected with rat cerebral cortex poly(A+) mRNA (2-electrode voltage-clamp); assay type: cell-based; details: glycine/NMDA 3/30 μM; MgCl2 absent, CaCl2 2 mM; product applied 30 seconds before and during agonist
Protocol: (§1) Their efficacy may be studied by means of electrophysiological techniques in vitro and especially by means of the measurement of the currents induced by the glutamatergic agonists in the oocyte of Xenopus.
(§2) Xenopus oocytes are injected with 50 ng of poly(A^+) mRNA isolated from rat cerebral cortex and incubated for 2 to 3 days at 18° C. so as to allow the protein expression thereof. The inflow of currents induced by the EAAs are measured in a medium of composition: NaCl (82.5 mM), KCl (2.5 mM), CaCl2 (1 mM), MgCl2 (1 mM), NaH2 PO4 (1 mM), HEPES (5 mM), pH 7.4 by the 2 electrode Voltage-clamp method (voltage=-60 mV). To measure the currents induced by NMDA and glycine, MgCl2 is absent from the medium and CaCl2 is supplied at the concentration of 2 mM. The EAA agonists inducing the currents are used at the following concentrations: kainate: 100 μM; AMPA: 30 μM; glycine/NMDA: 3/30 μM. The product studied is applied 30 seconds before and during the application of the agonist.

[4] = Solubility in water
[5] = test system: AMPA receptor; experiment: AMPA-induced currents in Xenopus oocytes injected with rat cerebral cortex poly(A+) mRNA (2-electrode voltage-clamp); assay type: cell-based
Protocol: as §1, §2

Structure (SMILES) | inhibition of mortality ([1]; 50 mg/kg i.p., 30 minutes before sound stimulus) | ED50 ([1]; Mus musculus, ip, 0.5 h, i.p. 30 minutes before sound stimulus (14 kHz, 103 dB), read-out: ED50 (anticonvulsant protection)) [mg/kg] | anticonvulsant effects (in words) ([1]; i.p. 30 minutes before sound stimulus) | decrease of the volume of the terminal infarct ([2]; 20 mg/kg i.v. then 3-day follow-up 10 mg/kg i.p. twice per day) [%] | reduction of cortical edematous infarct volume [2] [%] | IC50 [3] [µM] | solubility in water (in words) [4] | IC50 ([5]; AMPA 30 μM, voltage -60 mV, product applied 30 seconds before and during agonist) [µM] | selectivity for the AMPA receptor ([5]; AMPA versus NMDA, Xenopus oocytes) [times]
O=c1[nH]c2cc([N+](=O)[O-])ccc2cc1S(=O)(=O)O [Example 1, 7-Nitro-2-(1H)-quinolinone-3-sulfonic acid] | more than 80% | 26.9 | strongly protects the animals | 44 | 45 | – | – | – | –
O=c1[nH]c2cc([N+](=O)[O-])c([N+](=O)[O-])cc2cc1S(=O)(=O)O [Example 2, 6,7-Dinitro-2-(1H)-quinolinone-3-sulfonic acid] | – | – | – | – | 27 | 8 | soluble in water | 0.2 | 40
